Literature values, collected in publication PMC4468036 (Bioorganic & medicinal chemistry, 2014).

How the values were obtained:
[1] = biological target: δ receptor; settings: read-out: IC50 at δ receptor; selectivity of ML140
[2] = biological target: μ receptor; settings: read-out: IC50 at μ receptor; selectivity of ML140

IC50 [1]: > 32 µM
IC50 [2]: > 24 µM
Structure (SMILES): Cc1ccc(S(=O)(=O)NCc2ccc(C(=O)NCCN(Cc3ccccc3)C(C)C)cc2)cc1 [ML140]
